Source: US9695154B2, “Heteroaryl inhibitors of sumo activating enzyme” (MILLENNIUM PHARMACEUTICALS, INC., priority 2013, dated 2017)

Target: T1, recombinant human SAE enzyme (Homo sapiens, UniProt Q9UBT2)
T1 sequence (Q9UBT2 1-640): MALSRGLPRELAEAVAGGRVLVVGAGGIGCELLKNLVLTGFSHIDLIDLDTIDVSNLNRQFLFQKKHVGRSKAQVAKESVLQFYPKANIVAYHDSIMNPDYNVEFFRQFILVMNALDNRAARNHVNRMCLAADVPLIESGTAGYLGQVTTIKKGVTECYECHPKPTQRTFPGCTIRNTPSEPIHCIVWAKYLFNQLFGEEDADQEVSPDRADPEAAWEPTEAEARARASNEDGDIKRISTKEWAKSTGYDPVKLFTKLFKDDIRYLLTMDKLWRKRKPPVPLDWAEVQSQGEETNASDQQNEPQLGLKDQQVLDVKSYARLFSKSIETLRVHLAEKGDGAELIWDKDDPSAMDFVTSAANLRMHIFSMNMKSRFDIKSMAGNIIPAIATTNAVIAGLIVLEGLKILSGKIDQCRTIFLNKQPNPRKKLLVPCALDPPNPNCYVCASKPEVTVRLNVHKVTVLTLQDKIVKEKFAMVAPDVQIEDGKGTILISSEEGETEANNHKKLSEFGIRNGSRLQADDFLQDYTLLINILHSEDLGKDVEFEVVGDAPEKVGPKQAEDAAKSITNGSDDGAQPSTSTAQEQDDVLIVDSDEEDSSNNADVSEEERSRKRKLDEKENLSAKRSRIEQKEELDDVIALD
T1 sequence (Q9UBE0 1-346 partner): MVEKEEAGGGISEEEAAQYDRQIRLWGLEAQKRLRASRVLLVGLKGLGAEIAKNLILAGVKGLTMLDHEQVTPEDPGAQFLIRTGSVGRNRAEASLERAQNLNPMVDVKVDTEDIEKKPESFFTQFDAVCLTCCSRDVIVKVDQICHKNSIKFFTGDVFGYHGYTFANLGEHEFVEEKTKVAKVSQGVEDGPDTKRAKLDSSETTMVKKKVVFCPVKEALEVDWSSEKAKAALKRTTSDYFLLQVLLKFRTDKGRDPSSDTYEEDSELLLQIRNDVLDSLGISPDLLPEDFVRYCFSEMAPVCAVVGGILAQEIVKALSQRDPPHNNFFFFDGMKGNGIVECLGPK
Experiment: SAE HTRF Enzyme Assay
Format: biochemical
Details: for IC50: class symbols A-C; for inhibition at 0.111 µM / Percent Inhibition: compound concentration 0.111 μM; for inhibition at 0.111 µM: read-out: Percent Inhibition; for Percent Inhibition: 0.111 µM
Description: The SAE enzymatic reaction totals 50 μl and contains 50 mM HEPES Hemisodium (pH 7.5), 0.05% BSA, 5 mM MgCl2, 0.5 μM ATP, 250 μM GSH, 0.01 μM Ubc9-GST, 0.125 μM Sumo-Flag and 0.11 nM recombinant human SAE enzyme. The enzymatic reaction mixture with and without inhibitor, Is incubated at 24° C. for 105 min in a 384-well plate before termination with […] of Stop/Detection buffer (0.1M HEPES Hemisodium pH 7.5, 0.05% Tween20, 20 mM EDTA, 410 mM KF, 0.53 nM Europium-Cryptate labeled monoclonal anti-Flag M2 Antibody (CisBio International) and 8.125 μg/ml PHYCOLINK goat anti-GST allophycocyanin (XL-APC) antibody (Prozyme)). After incubation for 2 hours at 24° C., quantification of FRET is performed on the Pherostar™ (BMG Labtech). Percentage inhibition values at a single concentration or enzyme inhibition (IC50) values are determined from those curves. One skilled in the art will appreciate that the values generated either as percentage inhibition at a single concentration or IC50 values are subject to experimental variation.

| Structure (SMILES) | IC50 [nM] | inhibition at 0.111 µM [%] | Percent Inhibition [%] |
| --- | --- | --- | --- |
| CC(c1ccc(Cl)o1)n1ccc(C(=O)c2cncnc2N[C@@H]2C[C@H](COS(N)(=O)=O)[C@@H](O)C2)n1 (single isomer, unassigned) [Compound I-354, [(1R,2S,4R)-4-{[5-({1-[(1 S)-1-(5-chloro-2-furyl)ethyl]-1H-pyrazol-3-yl}carbonyl)pyrimidin-4-yl]amino}-2-hydroxycyclopentyl]methyl sulfamate or [(1R,2S,4R)-4-{[5-({1-[(1R)-1-(5-chloro-2-furyl)ethyl]-1H-pyrazol-3-yl}carbonyl)pyrimidin-4-yl]amino}-2-hydroxycyclopentyl]methyl sulfamate] | 10 to 100 | 79 |  |
| C#Cc1cccc([C@H](C)n2ccc(C(=O)c3cncnc3N[C@@H]3C[C@H](COS(N)(=O)=O)[C@@H](O)C3)n2)c1 (single isomer, unassigned) [Compound I-355] | < 10 | 99 |  |
| CCC(c1cccc(Br)c1)n1ccc(C(=O)c2cncnc2N[C@@H]2C[C@H](COS(N)(=O)=O)[C@@H](O)[C@@H]2F)c1 (single isomer, unassigned) [Compound I-356, [(1R,2R,3R,4R)-4-{[5-({1-[(1S)-1-(3-bromophenyl)propyl]-1H-pyrrol-3-yl}carbonyl)pyrimidin-4-yl]amino}-3-fluoro-2-hydroxycyclopentyl]methyl sulfamate or [(1R,2R,3R,4R)-4-{[5-({1-[(1R)-1-(3-bromophenyl)propyl]-1H-pyrrol-3-yl}carbonyl)pyrimidin-4-yl]amino}-3-fluoro-2-hydroxycyclopentyl]methyl sulfamate] | 10 to 100 |  | 85 |
| CC(c1ccc(C(F)(F)F)o1)n1ccc(C(=O)c2cncnc2N[C@@H]2C[C@H](COS(N)(=O)=O)[C@@H](O)[C@@H]2F)c1 (single isomer, unassigned) [Compound I-357, [(1R,2R,3R,4R)-3-fluoro-2-hydroxy-4-({5-[(1-{(1S)-1-[5-(trifluoromethyl)-2-furyl]ethyl}-1H-pyrrol-3-yl)carbonyl]pyrimidin-4-yl}amino)cyclopentyl]methyl sulfamate or [(1R,2R,3R,4R)-3-fluoro-2-hydroxy-4-({5-[(1-{(1R)-1-[5-(trifluoromethyl)-2-furyl]ethyl}-1H-pyrrol-3-yl)carbonyl]pyrimidin-4-yl}amino)cyclopentyl]methyl sulfamate] | < 10 |  | 100 |
| CC(c1cccc(Br)c1)n1ccc(C(=O)c2cncnc2N[C@@H]2C[C@H](COS(N)(=O)=O)[C@@H](O)C2)n1 (single isomer, unassigned) [Compound I-358, [(1R,2S,4R)-4-{[5-({1-[(1S)-1-(3-bromophenyl)ethyl]-1H-pyrazol-3-yl}carbonyl)pyrimidin-4-yl]amino}-2-hydroxycyclopentyl]methyl sulfamate or [(1R,2S,4R)-4-{[5-({1-[(1R)-1-(3-bromophenyl)ethyl]-1H-pyrazol-3-yl}carbonyl)pyrimidin-4-yl]amino}-2-hydroxycyclopentyl]methyl sulfamate] | < 10 |  | 95 |
| NS(=O)(=O)OC[C@H]1C[C@@H](Nc2ncncc2C(=O)c2ccn(CC3CC3c3ccccc3)c2)[C@@H](F)[C@@H]1O (single isomer, unassigned) [Compound I-359, [(1R,2R,3R,4R)-3-fluoro-2-hydroxy-4-{[5-({1-[(1R,2R)-(2-phenylcyclopropyl)methyl]-1H-pyrrol-3-yl}carbonyl)pyrimidin-4-yl]amino}cyclopentyl]methyl sulfamate or [(1R,2R,3R,4R)-3-fluoro-2-(hydroxy-4-{[5-({1-[(1S,2S)-(2-phenylcyclopropyl)methyl]-1H-pyrrol-3-yl}carbonyl)pyrimidin-4-yl]amino}cyclopentyl]methyl sulfamate] | 10 to 100 |  | 68 |
| CC(c1cccc(Cl)c1)n1ccc(C(=O)c2cncnc2N[C@@H]2C[C@H](COS(N)(=O)=O)[C@@H](O)C2)n1 (single isomer, unassigned) [Compound I-360, [(1R,2S,4R)-4-{[5-({1-[(1S)-1-(3-chlorophenyl)ethyl]-1H-pyrazol-3-yl}carbonyl)pyrimidin-4-yl]amino}-2-hydroxycyclopentyl]methyl sulfamate or [(1R,2S,4R)-4-{[5-({1-[(1R)-1-(3-chlorophenyl)ethyl]-1H-pyrazol-3-yl}carbonyl)pyrimidin-4-yl]amino}-2-hydroxycyclopentyl]methyl sulfamate] | < 10 |  | 99 |
| CC(c1ccccc1)n1ccc(C(=O)c2cncnc2N[C@@H]2C[C@H](COS(N)(=O)=O)[C@@H](O)[C@H]2O)n1 (single isomer, unassigned) [Compound I-361, {(1R,2R,3S,4R)-2,3-dihydroxy-4-[(5-{[1-((1S)-1-phenylethyl)-1H-pyrazol-3-yl]carbonyl}pyrimidin-4-yl)amino]cyclopentyl}methyl sulfamate or {(1R,2R,3S,4R)-2,3-dihydroxy-4-[(5-{[1-((1R)-1-phenylethyl)-1H-pyrazol-3-yl]carbonyl}pyrimidin-4-yl)amino]cyclopentyl}methyl sulfamate] | 10 to 100 |  | 85 |
| CC#CC(C)n1ccc(C(=O)c2cncnc2N[C@@H]2C[C@H](COS(N)(=O)=O)[C@@H](O)C2)n1 (single isomer, unassigned) [Compound I-362, {(1R,2S,4R)-2-hydroxy-4-[(5-{[(1S)-1-(pent-3-yn-2-yl)-1H-pyrazol-3-yl]carbonyl}pyrimidin-4-yl)amino]cyclopentyl}methyl sulfamate or {(1R,2S,4R)-2-hydroxy-4-[(5-{[(1R)-1-(pent-3-yn-2-yl)-1H-pyrazol-3-yl]carbonyl}pyrimidin-4-yl)amino]cyclopentyl}methyl sulfamate] | 10 to 100 | 52 |  |
| CC(c1cccc(Br)c1)n1ccc(C(=O)c2cncnc2N[C@@H]2C[C@H](COS(N)(=O)=O)[C@@H](O)[C@@H]2F)c1 (single isomer, unassigned) [Compound I-363, [(1R,2R,3R,4R)-4-{[5-({1-[(1S)-1-(3-bromophenyl)ethyl]-1H-pyrrol-3-yl}carbonyl)pyrimidin-4-yl]amino}-3-fluoro-2-hydroxycyolopentyl]methyl sulfamate or [(1R,2R,3R,4R)-4-{[5-({1-[(1R)-1-(3-bromophenyl)ethyl]-1H-pyrrol-3-yl}carbonyl)pyrimidin-4-yl]amino}-3-fluoro-2-hydroxycyclopentyl]methyl sulfamate] | < 10 |  | 100 |
| CC(c1ccc(Cl)o1)n1ccc(C(=O)c2cncnc2N[C@@H]2C[C@H](COS(N)(=O)=O)[C@@H](O)[C@@H]2F)c1 (single isomer, unassigned) [Compound I-364, [(1R,2R,3R,4R)-4-{[5-({1-[(1S)-1-(5-chloro-2-furyl)ethyl]-1H-pyrrol-3-yl}carbonyl)pyrimidin-4-yl]amino}-3-fluoro-2-hydroxycyclopentyl]methyl sulfamate or [(1R,2R,3R,4R)-4-{[5-({1-[(1R)-1-(5-chloro-2-furyl)ethyl]-1H-pyrrol-3-yl}carbonyl)pyrimidin-4-yl]amino}-3-fluoro-2-hydroxycyclopentyl]methyl sulfamate] | < 10 |  | 99 |
| Cc1cc(C(=O)c2cncnc2N[C@@H]2C[C@H](COS(N)(=O)=O)[C@@H](O)C2)nn1C(C)c1cccc(Cl)c1 (single isomer, unassigned) [Compound I-365, [(1R,2S,4R)-4-{[5-({1-[(1S)-1-(3-chlorophenyl)ethyl]-5-methyl-1H-pyrazol-3-yl}carbonyl)pyrimidin-4-yl]amino}-2-hydroxycyclopentyl]methyl sulfamate or [(1R,2S,4R)-4-{[5-({1-[(1R)-1-(3-chlorophenyl)ethyl]-5-methyl-1H-pyrazol-3-yl}carbonyl)pyrimidin-4-yl]amino}-2-hydroxycyclopentyl]methyl sulfamate] | 10 to 100 |  | 79 |
